In brackets after ≈: the same amount, converted by molar mass.
Experiments:
Staphylococcus aureus [1] = test: Staphylococcus Aureus Use Dilution Test; format: cell-based; conditions: Tryptic Soy Broth, 24 hours, 37° C, read-out: Minimum Inhibitory Concentration
Experimental: This test measures the bacteriostatic effectiveness of a particular test compound against Staphylococcus aureus. Tryptic Soy Broth is dispensed aseptically into sterile 13 × 100 mm. clear glass culture tubes. The first tube receives 3.6 ml. of medium and tubes 2 through 10 receive 2.0 ml. of medium. The test compound is dissolved in acetone to give 10 ml. of a solution of 0.10% of the test compound. Using a sterile syringe, 0.4 ml. of the test compound solution is placed in the first tube containing the 3.6 ml. of sterile broth and mixed thoroughly. This operation is continued through to the tenth tube. From the tenth tube, 2.0 ml. of solution is removed and discarded. Each tube is then innoculated with 0.1 ml. of a 24 hour culture of Staphylococcus aureus in Tryptic Soy Broth, and the mixture is mixed thoroughly using a Vortex mixer. A control is also set up to be sure that the inoculum is viable using a tube of sterile broth containing no added toxicant. The tubes are incubated for 24 hours at 37° C. The tubes are then examined to determine growth of the organism in the culture tubes. The minimum concentration in which no growth of the organism occurs is recorded. The following table gives the minimum inhibitory concentration necessary to control the organism: […]

[2] = test system: Two-spotted Mite (2-SM) Tetranychus urticae (Koch); test: Plant Dip Assay on Two-Spotted Mite, 2-SM PE; format: in vivo; conditions: infested Pinto Bean plants dipped 2-3 seconds, mortality after seven days, adult mites
From the text: The Two-spotted Mite (2-SM) Tetranychus urticae (Koch) is subjected to evaluation tests for miticidal activity. Plant Dip Assay on Two-Spotted Mite [Tetranychus urticae (Koch)] Pinto Bean plants (Phaseolus sp.) approximately 10 cm tall, are transplanted into sandy loam soil in 3 inch clay pots and thoroughly infested with two-spotted mites of mixed ages and sexes. Twenty-four hours later the infested plants are inverted and dipped for 2-3 seconds in 50-50 acetone-water solutions of the test chemicals. Treated plants are held in the greenhouse, and seven days later mortality is determined for both the adult mites and the nymphs hatching from eggs which were on the plants at the time of treatment. Test concentrations range from 0.05% down to that at which 50% mortality occurs. The values obtained in this test are found in Table VII under the Columns 2SM-PE and 2SM-Eggs.

Phoma herbarum = test: Biocide Testing Procedure (malt extract broth); format: cell-based; conditions: 168 h, one week, read-out: lowest concentration which provides 50% inhibition of growth
Experimental: Biocide Testing Procedure Tubes of sterilized nutrient and malt extract broth are prepared. Aliquots of the toxicant, dissolved in an appropriate solvent, are injected through the stopper, into the broth, to provide concentrations ranging from 50 ppm downward. The test organism is a fungus, Phoma herbarum. Three drops of a spore suspension of the fungus are injected into the tubes of malt broth. One week later the growth of the organism is observed and effectiveness of the chemical is recorded as the lowest concentration in ppm which provides 50% inhibition of growth as compared to untreated inoculated tube.

[3] = test system: Desulfovibrio desulfuricans; test: Sulfate Reducing Bacteria In Vitro Test; format: cell-based; conditions: Sulfate API broth with tryptone, anaerobic, room temperature, 3 to 5 days, read-out: minimum inhibitory concentration necessary to control the organism
Experimental: This test measures the bactericidal properties of a compound when in contact with a sulfate reducing bacteria, specifically Desulfovibrio desulfuricans. The test is conducted by dissolving the test compound in acetone to give an 0.5% solution. This toxicant is added to vials containing sterile Sulfate API broth with tryptone under anaerobic conditions at such levels to give final toxicant concentrations of 1, 5, 10 and 50 ug/ml. of solution. An inoculant solution of 0.5 ml. of the growing organism, Desulfovibrio desulfuricans, is added to the vials followed by sufficient sterile distilled water to give a total of 10 ml. of solution in the vials. The vials are incubated at room temperature for 3 to 5 days until untreated controls show growth of the organism as indicated by the black color development in the vials. The following is a summary of the minimum inhibitory concentration necessary to control the organism.

[4] = test system: Trichophyton mentagrophytes; test: In Vitro Agar Screening Tests (Example 4); format: cell-based; conditions: Emmons agar, 30° C, partial control at this concentration, read-out: Minimum Inhibitory Concentration
Experimental: (§1) This test measures the bactericidal, fungicidal and algaecidal properties of a compound when in contact with growing bacteria, fungi or algae in an artificial medium. The test is conducted by adding 20 ml. portions of a suitable warm sterile agar solution into 20 × 100 Petri dishes. Then, the text compound, in 0.5% acetone solution, is added to the Petri dishes at levels of 1, 5, 10 and 50 μg/ml. and mixed with the warm mobile agar solution. The treated agar mixture is then allowed to come to room temperature and solidify. Cells of the chosen organism are streaked on the surface of the solidified agar and are then incubated for such lengths of time that untreated samples containing no toxicant show luxurious growth typical of the particular organism. This time varies from 24 hours to one week depending on the particular organism. The fungi are incubated at 30° C and the bacteria are incubated at 37° C. The algae are incubated at room temperature under artificial light. Nutrient agar is used as the medium in this test for the bacteria. Potato dextrose agar is used as the medium for the fungi with the exception of Trichophyton mentagrophytes for which Emmons agar is used. A modified Jack Meyers agar is used for the growth of the algae.
(§2) The extent of growth is noted at the end of the incubation period.

Aspergillus niger = test: In Vitro Agar Screening Tests (Example 4); format: cell-based; conditions: potato dextrose agar, 30° C, read-out: Minimum Inhibitory Concentration
Experimental: as §1, §2

[5] = test system: Brevibacterium ammoniagenes; test: In Vitro Agar Screening Tests (Example 4); format: cell-based; conditions: Corynebacterium ammoniagenes, nutrient agar, 37° C, read-out: Minimum Inhibitory Concentration
Experimental: as §1, §2

Scenedesmus obliquus = test: In Vitro Agar Screening Tests (Example 4); format: cell-based; conditions: Tetradesmus obliquus, modified Jack Meyers agar, room temperature, artificial light, read-out: Minimum Inhibitory Concentration
Experimental: as §1, §2

Staphylococcus aureus [6] = test: In Vitro Agar Screening Tests (Example 4); format: cell-based; conditions: nutrient agar, 37° C, read-out: Minimum Inhibitory Concentration
Experimental: as §1, §2

Chlorella pyrenoidosa = test: In Vitro Agar Screening Tests (Example 4); format: cell-based; conditions: Auxenochlorella pyrenoidosa, modified Jack Meyers agar, room temperature, artificial light, read-out: Minimum Inhibitory Concentration
Experimental: as §1, §2

Bacillus cereus = test: In Vitro Agar Screening Tests (Example 4); format: cell-based; conditions: nutrient agar, 37° C, read-out: Minimum Inhibitory Concentration
Experimental: as §1, §2

Euglena gracilis = test: In Vitro Agar Screening Tests (Example 4); format: cell-based; conditions: modified Jack Meyers agar, room temperature, artificial light, read-out: Minimum Inhibitory Concentration
Experimental: as §1, §2

Pseudomonas aeruginosa = test: In Vitro Agar Screening Tests (Example 4); format: cell-based; conditions: nutrient agar, 37° C, read-out: Minimum Inhibitory Concentration
Experimental: as §1, §2

Pseudomonas fluorescens = test: In Vitro Agar Screening Tests (Example 4); format: cell-based; conditions: nutrient agar, 37° C, read-out: Minimum Inhibitory Concentration
Experimental: as §1, §2

Aspergillus fumigatus = test: In Vitro Agar Screening Tests (Example 4); format: cell-based; conditions: potato dextrose agar, 30° C, read-out: Minimum Inhibitory Concentration
Experimental: as §1, §2

Escherichia coli = test: In Vitro Agar Screening Tests (Example 4); format: cell-based; conditions: nutrient agar, 37° C, read-out: Minimum Inhibitory Concentration
Experimental: as §1, §2

Rhizopus stolonifer = test: In Vitro Agar Screening Tests (Example 4); format: cell-based; conditions: potato dextrose agar, 30° C, partial control at this concentration, read-out: Minimum Inhibitory Concentration
Experimental: as §1, §2

Aspergillus oryzae = test: In Vitro Agar Screening Tests (Example 4); format: cell-based; conditions: potato dextrose agar, 30° C, partial control at this concentration, read-out: Minimum Inhibitory Concentration
Experimental: as §1, §2

Penicillium italicum = test: In Vitro Agar Screening Tests (Example 4); format: cell-based; conditions: potato dextrose agar, 30° C, read-out: Minimum Inhibitory Concentration
Experimental: as §1, §2

Pencillium ochra-chloron = test: In Vitro Agar Screening Tests (Example 4); format: cell-based; conditions: potato dextrose agar, 30° C, partial control at this concentration, read-out: Minimum Inhibitory Concentration
Experimental: as §1, §2

Pencillium vermiculatum = test: In Vitro Agar Screening Tests (Example 4); format: cell-based; conditions: potato dextrose agar, 30° C, read-out: Minimum Inhibitory Concentration
Experimental: as §1, §2

Enterobacter aerogenes = test: In Vitro Agar Screening Tests (Example 4); format: cell-based; conditions: Klebsiella aerogenes, nutrient agar, 37° C, read-out: Minimum Inhibitory Concentration
Experimental: as §1, §2

Pencillium expansum = test: In Vitro Agar Screening Tests (Example 4); format: cell-based; conditions: potato dextrose agar, 30° C, partial control at this concentration, read-out: Minimum Inhibitory Concentration
Experimental: as §1, §2

Trichoderma sp. = test: In Vitro Agar Screening Tests (Example 4); format: cell-based; conditions: potato dextrose agar, 30° C, partial control at this concentration, read-out: Minimum Inhibitory Concentration
Experimental: as §1, §2

CCOCCOC(=S)SCSC#N [Compound 1]
MIC (Staphylococcus aureus [1]): 50 µg/mL (≈ 211 µM)
2-SM PE: concentration at which 50% mortality occurs [2]: .03%
IC50 (Phoma herbarum): 5 µg/mL (≈ 21.1 µM)
MIC [3]: 10 µg/mL (≈ 42.1 µM)
MIC [4]: 10 µg/mL (≈ 42.1 µM)
MIC (Aspergillus niger): 1 µg/mL (≈ 4.21 µM)
MIC [5]: > 50 µg/mL
MIC (Scenedesmus obliquus): 10 µg/mL (≈ 42.1 µM)
MIC (Staphylococcus aureus [6]): 5 µg/mL (≈ 21.1 µM)
MIC (Chlorella pyrenoidosa): 1 µg/mL (≈ 4.21 µM)
MIC (Bacillus cereus): > 50 µg/mL
MIC (Euglena gracilis): 1 µg/mL (≈ 4.21 µM)
MIC (Pseudomonas aeruginosa): 50 µg/mL (≈ 211 µM)
MIC (Pseudomonas fluorescens): 50 µg/mL (≈ 211 µM)
MIC (Aspergillus fumigatus): 5 µg/mL (≈ 21.1 µM)
MIC (Escherichia coli): 25 µg/mL (≈ 105 µM)
MIC (Rhizopus stolonifer): 1 µg/mL (≈ 4.21 µM)
MIC (Aspergillus oryzae): 1 µg/mL (≈ 4.21 µM)
MIC (Penicillium italicum): 1 µg/mL (≈ 4.21 µM)
MIC (Pencillium ochra-chloron): 10 µg/mL (≈ 42.1 µM)
MIC (Pencillium vermiculatum): 10 µg/mL (≈ 42.1 µM)
MIC (Enterobacter aerogenes): > 50 µg/mL
MIC (Pencillium expansum): 5 µg/mL (≈ 21.1 µM)
MIC (Trichoderma sp.): 10 µg/mL (≈ 42.1 µM)

— patent US4078079A, “Thiocyano-xanthate miticides” (Stauffer Chemical Company, priority 1976, dated 1978)
